Consider 10 molecules from patent publication US5874443A, “Isoquinoline derivatives and isoquinoline combinatorial libraries” (Trega Biosciences, Inc., priority 1996, dated 1999).

“Also recorded” adds a separate entry of the source.

One test deals with T1, σ receptor (Rattus norvegicus, UniProt Q9R0C9).
T1 construct: The brains are thawed, the cerebella removed and the remaining tissue weighed; tissue Rockland (Gilbertsville, Pa.); host or cells: rat brain without cerebellum, crude particulate membranes
T1 sequence (Q9R0C9 whole entry): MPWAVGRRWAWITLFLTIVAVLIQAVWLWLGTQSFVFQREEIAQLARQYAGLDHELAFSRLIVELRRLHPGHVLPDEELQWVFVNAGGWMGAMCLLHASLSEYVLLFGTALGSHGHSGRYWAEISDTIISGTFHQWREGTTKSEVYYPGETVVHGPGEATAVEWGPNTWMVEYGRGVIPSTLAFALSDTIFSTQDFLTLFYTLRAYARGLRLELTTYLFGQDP
The test can be described thus: σ receptor radio-receptor assay, inhibition of radiolabeled pentazocine binding. Conditions: Table IV; individual compounds, R1 varied.
As for `COc1ccc(Cc2ccc(C3C(C(=O)NCC45CC6CC(CC(C6)C4)C5)c4ccccc4C(=O)N3C[C@H](N)C(N)=O)o2)cc1` (some centres unmarked) [Compound 3], the IC50 was 71 nM.
On the same count and under the same terms, the value for `COc1ccc(Cc2ccc(C3C(C(=O)NCC45CC6CC(CC(C6)C4)C5)c4ccccc4C(=O)N3CCCCC(N)=O)o2)cc1` (centres unmarked) [Pool 9] was 231 nM.
`COc1ccc(Cc2ccc(C3C(C(=O)NCC45CC6CC(CC(C6)C4)C5)c4ccccc4C(=O)N3CCC(N)=O)o2)cc1` (centres unmarked) [Pool 10] registered an IC50 of 355 nM.
`COc1ccc(Cc2ccc(C3C(C(=O)NCC45CC6CC(CC(C6)C4)C5)c4ccccc4C(=O)N3CCCC[C@H](N)C(N)=O)o2)cc1` (some centres unmarked) [Pool 8] showed an IC50 of 150 nM.
`COc1ccc(Cc2ccc(C3C(C(=O)NCC45CC6CC(CC(C6)C4)C5)c4ccccc4C(=O)N3CC(N)=O)o2)cc1` (centres unmarked) [Pool 6] came in with an IC50 of 124 nM.
Same read-out and setting: with `COc1ccc(Cc2ccc(C3C(C(=O)NCC45CC6CC(CC(C6)C4)C5)c4ccccc4C(=O)N3CCCCCCC(N)=O)o2)cc1` (centres unmarked) [Compound 1] the figure was 56 nM; with `COc1ccc(Cc2ccc(C3C(C(=O)NCC45CC6CC(CC(C6)C4)C5)c4ccccc4C(=O)N3CCOCCOCC(N)=O)o2)cc1` (centres unmarked) [Pool 5], 117 nM.
Regarding `COc1ccc(Cc2ccc(C3C(C(=O)NCC45CC6CC(CC(C6)C4)C5)c4ccccc4C(=O)N3C[C@H]3CC[C@H](C(N)=O)CC3)o2)cc1` (some centres unmarked) [Pool 2], the IC50 was determined as 68 nM.
On the same count and under the same terms, the value for `COc1ccc(Cc2ccc(C3C(C(=O)NCC45CC6CC(CC(C6)C4)C5)c4ccccc4C(=O)N3Cc3ccc(C(N)=O)cc3)o2)cc1` (centres unmarked) [Pool 7] was 130 nM.

The test is the same for the next values; noted with them: in words; Example 44.
For the molecule `COc1ccc(Cc2ccc(C3C(C(=O)NCC45CC6CC(CC(C6)C4)C5)c4ccccc4C(=O)N3CCCCCCC(N)=O)o2)cc1` (centres unmarked) [Compound 1], the “activity in the σ receptor assay (iterative approach)” value is listed as “most active”.

The same test, now with this note: in words; Example 51.
Regarding `COc1ccc(Cc2ccc(C3C(C(=O)NCC4CCCCC4)c4ccccc4C(=O)N3CCCCCCC(N)=O)o2)cc1` (centres unmarked), the “activity in the σ receptor screen (positional scan)” value is reported as “most active; also recorded: virtually equal activity”.
